IC50 data for 1 molecule are collected here from ChEMBL document CHEMBL5360572, “Advances of bioorthogonal coupling reactions in drug development” (Eur J Med Chem, 2023).

What is called IC50 is the concentration needed to halve the response being measured.

Experiment [1] addresses T1, M-phase inducer phosphatase 1 (Homo sapiens, UniProt P30304).
T1 sequence (P30304 whole entry): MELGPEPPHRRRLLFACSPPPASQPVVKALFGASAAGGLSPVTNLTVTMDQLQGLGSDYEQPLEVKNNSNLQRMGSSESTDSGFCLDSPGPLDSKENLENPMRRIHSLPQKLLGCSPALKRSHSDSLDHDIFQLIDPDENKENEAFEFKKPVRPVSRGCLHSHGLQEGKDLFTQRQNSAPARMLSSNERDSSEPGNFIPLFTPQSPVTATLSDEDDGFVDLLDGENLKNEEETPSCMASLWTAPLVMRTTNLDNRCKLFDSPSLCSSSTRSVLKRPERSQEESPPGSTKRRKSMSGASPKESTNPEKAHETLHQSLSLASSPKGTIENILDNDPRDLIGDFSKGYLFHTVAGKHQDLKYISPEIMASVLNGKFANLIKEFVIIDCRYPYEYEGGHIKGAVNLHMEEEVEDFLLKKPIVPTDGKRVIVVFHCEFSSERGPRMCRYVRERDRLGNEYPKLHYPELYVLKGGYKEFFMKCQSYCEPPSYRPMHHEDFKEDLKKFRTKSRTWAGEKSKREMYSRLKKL
Description: Inhibition of full-length recombinant human CDC25A using OMFP as substrate incubated for 5 to 8 mins by fluorescence based assay.

The target of experiment [2] is T2, M-phase inducer phosphatase 3 (Homo sapiens, UniProt P30307).
T2 sequence (P30307 whole entry): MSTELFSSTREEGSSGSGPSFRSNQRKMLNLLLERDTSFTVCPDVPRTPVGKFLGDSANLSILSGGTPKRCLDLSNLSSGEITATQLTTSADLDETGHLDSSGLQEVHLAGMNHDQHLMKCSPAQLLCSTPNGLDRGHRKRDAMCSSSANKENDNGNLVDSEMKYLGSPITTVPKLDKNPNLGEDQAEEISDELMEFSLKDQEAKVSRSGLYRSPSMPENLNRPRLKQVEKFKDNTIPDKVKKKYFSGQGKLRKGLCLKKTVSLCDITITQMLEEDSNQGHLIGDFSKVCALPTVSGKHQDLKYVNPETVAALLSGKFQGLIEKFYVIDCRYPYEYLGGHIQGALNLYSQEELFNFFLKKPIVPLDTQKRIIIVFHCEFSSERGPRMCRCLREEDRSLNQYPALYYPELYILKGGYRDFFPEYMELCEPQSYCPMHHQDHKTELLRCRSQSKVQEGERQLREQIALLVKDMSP
The experiment is described as follows: Inhibition of full-length recombinant human CDC25C using OMFP as substrate incubated for 5 to 8 mins by fluorescence based assay.

Experiment [3] addresses T3, M-phase inducer phosphatase 2 (Homo sapiens, UniProt P30305).
T3 sequence (P30305 whole entry): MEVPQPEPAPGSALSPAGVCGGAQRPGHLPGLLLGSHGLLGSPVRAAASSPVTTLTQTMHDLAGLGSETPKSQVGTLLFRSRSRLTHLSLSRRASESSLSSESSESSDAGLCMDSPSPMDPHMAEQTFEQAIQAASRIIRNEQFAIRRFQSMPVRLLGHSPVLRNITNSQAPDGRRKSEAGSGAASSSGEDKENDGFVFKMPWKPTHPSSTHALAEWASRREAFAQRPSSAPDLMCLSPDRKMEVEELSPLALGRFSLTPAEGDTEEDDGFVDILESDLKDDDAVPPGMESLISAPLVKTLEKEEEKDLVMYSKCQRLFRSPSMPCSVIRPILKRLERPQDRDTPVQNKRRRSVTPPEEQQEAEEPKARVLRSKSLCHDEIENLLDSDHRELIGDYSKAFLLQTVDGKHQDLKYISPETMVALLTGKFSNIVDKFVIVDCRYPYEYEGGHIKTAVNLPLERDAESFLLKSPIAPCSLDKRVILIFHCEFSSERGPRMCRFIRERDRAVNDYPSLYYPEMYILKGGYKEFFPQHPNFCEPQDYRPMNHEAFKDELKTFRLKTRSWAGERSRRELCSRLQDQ
The experiment is described as follows: Inhibition of full-length recombinant human CDC25B using OMFP as substrate incubated for 5 to 8 mins by fluorescence based assay.

Molecules are shown by their SMILES.

Consider `CC(NC1=C(Cl)C(=O)c2cccnc2C1=O)c1cn(-c2ccc(CO)cc2)nn1` (stereo not drawn), for which the figures for the IC50 in experiment [1], in experiment [2] and in experiment [3] were 150 nM, 60 nM and 190 nM, respectively.
